# In patent publication US7259173B2, “Derivatives of 3-phenyl-n-(2-(4-benzyl)-piperidin-1-yl)-ethyl)-acrylamid with ccr-3-receptor antagonistic activity for use in the treatment of inflammations and allergic conditions” (Novartis AG, priority 2001, dated 2007):
# Target: T1, human CCR-3 (Homo sapiens, UniProt P51677)
# T1 construct: expressed in transfected cells; host or cells: rat basophil leukemia (RBL-2H3) cells, membranes
# T1 sequence (P51677 1-355): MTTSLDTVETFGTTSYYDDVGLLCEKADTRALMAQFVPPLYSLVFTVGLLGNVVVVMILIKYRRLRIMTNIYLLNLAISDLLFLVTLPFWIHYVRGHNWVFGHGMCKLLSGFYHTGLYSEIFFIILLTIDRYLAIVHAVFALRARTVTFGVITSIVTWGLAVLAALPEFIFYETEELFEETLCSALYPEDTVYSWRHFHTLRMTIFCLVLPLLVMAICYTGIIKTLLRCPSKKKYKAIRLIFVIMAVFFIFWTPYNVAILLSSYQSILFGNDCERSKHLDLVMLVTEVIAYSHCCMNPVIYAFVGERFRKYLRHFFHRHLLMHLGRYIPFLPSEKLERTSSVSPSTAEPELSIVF
# Test: CCR-3 Binding Assay ([125I]-human eotaxin SPA)
# Details: inhibition of [125I]-human eotaxin binding to human CCR-3, membranes of RBL-2H3 cells expressing CCR3
# Description: In this assay the effect of agents of the invention on the binding of human eotaxin to human CCR-3 is determined. Recombinant cells expressing human CCR-3 are captured by wheatgerm agglutinin (WGA) polyvinyltoluidene (PVT) SPA beads (available from Amersham), through a specific interaction between the WGA and carbohydrate residues of glycoproteins on the surface of the cells. [^125I]-human eotaxin (available from Amersham) binds specifically to CCR-3 receptors bringing the [^125I]-human eotaxin in close proximity to the SPA beads. Emitted â-particles from the [^125I]-human eotaxin excite, by its proximity, the fluorophore in the beads and produce light.
# Preparation of Assay Buffer: 5.96 g HEPES and 7.0 g sodium chloride are dissolved in distilled water and 1M aqueous CaCl2 (1 mL) and 1M aqueous MgCl2 (5 mL) are added. The pH is adjusted to 7.6 with NaOH and the solution made to a final volume of 1 L using distilled water. 5 g bovine serum albumin and 0.1 g sodium azide are then dissolved in the solution and the resulting buffer stored at 4° C. A Complete™ protease inhibitor cocktail tablet (available from Boehringer) is added per 50 mL of the buffer on the day of use.
# Preparation of Homogenisation Buffer: Tris-base (2.42 g) is dissolved in distilled water, the pH of the solution is adjusted to 7.6 with hydrochloric acid and the solution is diluted with distilled water to a final volume of 1 L. The resulting buffer is stored at 4° C. A Complete™ protease inhibitor cocktail tablet is added per 50 mL of the buffer on the day of use.
# Preparation of membranes: Confluent rat basophil leukemia (RBL-2H3) cells stably expressing CCR3 are removed from tissue culture flasks using enzyme-free cell dissociation buffer and resuspended in phosphate-buffered saline. […]
# The assay is performed in a final volume of 250 μL per well of an Optiplate (ex Canberra Packard). […] The resulting scintillations are counted using a Canberra Packard TopCount, each well being counted for 1 minute. […]
row,IC50 [nM],SMILES
1,34.7,"COc1ccc(Br)cc1/C=C/C(=O)NCCN1CCC(Cc2ccc(F)cc2)CC1 [Example 3, (E)-3-(5-Bromo-2-methoxy-phenyl)-N-{2-[4-(4-fluoro-benzyl)-piperidin-1-yl]-ethyl}-acrylamide]"
2,6,"COc1ccc(C#N)cc1/C=C/C(=O)N[C@H](CO)CN1CCC(Cc2ccc(Cl)cc2)CC1 [Example 2, (E)-3-(5-Cyano-2-methoxy-phenyl)-N-{(S)-2-[4-(4-chloro-benzyl)-piperidin-1-yl]-1-hydroxymethyl-ethyl}-acrylamide]"
3,6,"COc1ccc(C#N)cc1/C=C/C(=O)N[C@H](CO)CN1CCC(Cc2ccc(F)cc2)CC1 [Example 4, (E)-3-(5-Cyano-2-methoxy-phenyl)-N-{(S)-2-[4-(4-fluoro-benzyl)-piperidin-1-yl]-1-hydroxymethyl-ethyl}-acrylaniide]"
